# Source: ChEMBL document CHEMBL3259800, “Design, synthesis and biological evaluation of novel 4-alkapolyenylpyrrolo[1,2-a]quinoxalines as antileishmanial agents--part III” (Eur J Med Chem, 2014)
# Tested on: Leishmania major
# Assay: Antimicrobial activity against Leishmania major MHOM/IL/81/BNI promastigotes after 96 hrs by resazurin-based assay
# Assay type: functional, organism-based
# Details: not given
row,Compound,IC50
1,C/C=C/C=C/c1nc2ccccc2n2cccc12,4.7 µM
2,C/C=C/C=C/c1nc2cc(OC)ccc2n2cccc12,3 µM
3,C/C=C/C=C/c1nc2ccc(OC)cc2n2cccc12,2.7 µM
4,C/C=C/C=C/c1nc2cccc(OC)c2n2cccc12,3.3 µM
5,CCC/C=C/C=C/c1nc2ccccc2n2cccc12,3.9 µM
6,CCC/C=C/C=C/c1nc2cc(OC)ccc2n2cccc12,2.8 µM
7,CCC/C=C/C=C/c1nc2ccc(OC)cc2n2cccc12,7.4 µM
8,CCC/C=C/C=C/c1nc2cccc(OC)c2n2cccc12,3.9 µM

# Tested on: Leishmania mexicana
# Assay: Antimicrobial activity against Leishmania mexicana MHOM/MX/95/NAN1 promastigotes after 96 hrs by resazurin-based assay
# Assay type: functional, organism-based
# Details: MHOM/MX/95/NAN1, 96 h
row,Compound,IC50
1,C/C=C/C=C/c1nc2ccccc2n2cccc12,7.6 µM
2,C/C=C/C=C/c1nc2cc(OC)ccc2n2cccc12,3.3 µM
3,C/C=C/C=C/c1nc2ccc(OC)cc2n2cccc12,3.7 µM
4,C/C=C/C=C/c1nc2cccc(OC)c2n2cccc12,8 µM
5,CCC/C=C/C=C/c1nc2ccccc2n2cccc12,12.1 µM
6,CCC/C=C/C=C/c1nc2cc(OC)ccc2n2cccc12,3.2 µM
7,CCC/C=C/C=C/c1nc2ccc(OC)cc2n2cccc12,5.1 µM
8,CCC/C=C/C=C/c1nc2cccc(OC)c2n2cccc12,10.3 µM

# Tested on: Leishmania donovani
# Assay: Antimicrobial activity against Leishmania donovani MHOM/IN/00/DEVI promastigotes after 72 hrs by MTT assay
# Assay type: functional, organism-based
# Details: not given
row,Compound,IC50
1,C/C=C/C=C/c1nc2ccccc2n2cccc12,9.8 µM
2,C/C=C/C=C/c1nc2cc(OC)ccc2n2cccc12,5.3 µM
3,C/C=C/C=C/c1nc2ccc(OC)cc2n2cccc12,5.4 µM
4,C/C=C/C=C/c1nc2cccc(OC)c2n2cccc12,7.2 µM
5,CCC/C=C/C=C/c1nc2ccccc2n2cccc12,7.6 µM
6,CCC/C=C/C=C/c1nc2cc(OC)ccc2n2cccc12,8.6 µM
7,CCC/C=C/C=C/c1nc2ccc(OC)cc2n2cccc12,7.6 µM
8,CCC/C=C/C=C/c1nc2cccc(OC)c2n2cccc12,9.9 µM

# Tested on: not listed separately
# Assay: Cytotoxicity against mouse J774A1 cells after 72 hrs by MTT assay
# Assay type: cell-based, J774.A1
# Details: not given
row,Compound,CC50 at 72 h
1,C/C=C/C=C/c1nc2ccccc2n2cccc12,4.3 µM
2,C/C=C/C=C/c1nc2cc(OC)ccc2n2cccc12,2.5 µM
3,C/C=C/C=C/c1nc2ccc(OC)cc2n2cccc12,5.3 µM
4,C/C=C/C=C/c1nc2cccc(OC)c2n2cccc12,2.7 µM
5,CCC/C=C/C=C/c1nc2ccccc2n2cccc12,4.7 µM
6,CCC/C=C/C=C/c1nc2cc(OC)ccc2n2cccc12,6.5 µM
7,CCC/C=C/C=C/c1nc2ccc(OC)cc2n2cccc12,7.8 µM
8,CCC/C=C/C=C/c1nc2cccc(OC)c2n2cccc12,7.1 µM

# Tested on: not listed separately
# Assay: Cytotoxicity against human HepG2 cells after 72 hrs by MTT assay
# Assay type: cell-based
# Details: not given
row,Compound,CC50 at 72 h
1,C/C=C/C=C/c1nc2ccccc2n2cccc12,10.3 µM
2,C/C=C/C=C/c1nc2cc(OC)ccc2n2cccc12,5.8 µM
3,C/C=C/C=C/c1nc2ccc(OC)cc2n2cccc12,8.7 µM
4,C/C=C/C=C/c1nc2cccc(OC)c2n2cccc12,6.5 µM
5,CCC/C=C/C=C/c1nc2ccccc2n2cccc12,9.3 µM
6,CCC/C=C/C=C/c1nc2cc(OC)ccc2n2cccc12,8.8 µM
7,CCC/C=C/C=C/c1nc2ccc(OC)cc2n2cccc12,20.1 µM
8,CCC/C=C/C=C/c1nc2cccc(OC)c2n2cccc12,17.4 µM

# Tested on: not listed separately
# Assay: Selectivity index, ratio of CC50 for human HepG2 cells to IC50 for Leishmania major MHOM/IL/81/BNI promastigotes
# Assay type: functional
# Details: not given
row,Compound,Ratio CC50/IC50
1,C/C=C/C=C/c1nc2ccccc2n2cccc12,2.2
2,C/C=C/C=C/c1nc2cc(OC)ccc2n2cccc12,1.9
3,C/C=C/C=C/c1nc2ccc(OC)cc2n2cccc12,3.2
4,C/C=C/C=C/c1nc2cccc(OC)c2n2cccc12,2
5,CCC/C=C/C=C/c1nc2ccccc2n2cccc12,2.4
6,CCC/C=C/C=C/c1nc2cc(OC)ccc2n2cccc12,3.1
7,CCC/C=C/C=C/c1nc2ccc(OC)cc2n2cccc12,2.7
8,CCC/C=C/C=C/c1nc2cccc(OC)c2n2cccc12,4.5

# Tested on: not listed separately
# Assay: Selectivity index, ratio of CC50 for human HepG2 cells to IC50 for Leishmania mexicana MHOM/MX/95/NAN1 promastigotes
# Assay type: functional
# Details: not given
row,Compound,Ratio CC50/IC50
1,C/C=C/C=C/c1nc2ccccc2n2cccc12,1.4
2,C/C=C/C=C/c1nc2cc(OC)ccc2n2cccc12,1.8
3,C/C=C/C=C/c1nc2ccc(OC)cc2n2cccc12,2.4
4,C/C=C/C=C/c1nc2cccc(OC)c2n2cccc12,0.8
5,CCC/C=C/C=C/c1nc2ccccc2n2cccc12,0.8
6,CCC/C=C/C=C/c1nc2cc(OC)ccc2n2cccc12,2.8
7,CCC/C=C/C=C/c1nc2ccc(OC)cc2n2cccc12,4
8,CCC/C=C/C=C/c1nc2cccc(OC)c2n2cccc12,1.7

# Tested on: not listed separately
# Assay: Selectivity index, ratio of CC50 for human HepG2 cells to IC50 for Leishmania donovani MHOM/IN/00/DEVI promastigotes
# Assay type: functional
# Details: not given
row,Compound,Ratio CC50/IC50
1,C/C=C/C=C/c1nc2ccccc2n2cccc12,1.1
2,C/C=C/C=C/c1nc2cc(OC)ccc2n2cccc12,1.1
3,C/C=C/C=C/c1nc2ccc(OC)cc2n2cccc12,1.6
4,C/C=C/C=C/c1nc2cccc(OC)c2n2cccc12,0.9
5,CCC/C=C/C=C/c1nc2ccccc2n2cccc12,1.2
6,CCC/C=C/C=C/c1nc2cc(OC)ccc2n2cccc12,1
7,CCC/C=C/C=C/c1nc2ccc(OC)cc2n2cccc12,2.6
8,CCC/C=C/C=C/c1nc2cccc(OC)c2n2cccc12,1.8

# Tested on: not listed separately
# Assay: Selectivity index, ratio of CC50 for mouse J774A1 cells to IC50 for Leishmania major MHOM/IL/81/BNI promastigotes
# Assay type: functional, J774.A1
# Details: not given
row,Compound,Ratio CC50/IC50
1,C/C=C/C=C/c1nc2ccccc2n2cccc12,0.9
2,C/C=C/C=C/c1nc2cc(OC)ccc2n2cccc12,0.8
3,C/C=C/C=C/c1nc2ccc(OC)cc2n2cccc12,2
4,C/C=C/C=C/c1nc2cccc(OC)c2n2cccc12,0.8
5,CCC/C=C/C=C/c1nc2ccccc2n2cccc12,1.2
6,CCC/C=C/C=C/c1nc2cc(OC)ccc2n2cccc12,2.3
7,CCC/C=C/C=C/c1nc2ccc(OC)cc2n2cccc12,1.1
8,CCC/C=C/C=C/c1nc2cccc(OC)c2n2cccc12,1.8

# Tested on: not listed separately
# Assay: Selectivity index, ratio of CC50 for mouse J774A1 cells to IC50 for Leishmania mexicana MHOM/MX/95/NAN1 promastigotes
# Assay type: functional, J774.A1
# Details: not given
row,Compound,Ratio CC50/IC50
1,C/C=C/C=C/c1nc2ccccc2n2cccc12,0.6
2,C/C=C/C=C/c1nc2cc(OC)ccc2n2cccc12,0.8
3,C/C=C/C=C/c1nc2ccc(OC)cc2n2cccc12,1.4
4,C/C=C/C=C/c1nc2cccc(OC)c2n2cccc12,0.3
5,CCC/C=C/C=C/c1nc2ccccc2n2cccc12,0.4
6,CCC/C=C/C=C/c1nc2cc(OC)ccc2n2cccc12,2
7,CCC/C=C/C=C/c1nc2ccc(OC)cc2n2cccc12,1.5
8,CCC/C=C/C=C/c1nc2cccc(OC)c2n2cccc12,0.7

# Tested on: not listed separately
# Assay: Selectivity index, ratio of CC50 for mouse J774A1 cells to IC50 for Leishmania donovani MHOM/IN/00/DEVI promastigotes
# Assay type: functional, J774.A1
# Details: not given
row,Compound,Ratio CC50/IC50
1,C/C=C/C=C/c1nc2ccccc2n2cccc12,0.4
2,C/C=C/C=C/c1nc2cc(OC)ccc2n2cccc12,0.5
3,C/C=C/C=C/c1nc2ccc(OC)cc2n2cccc12,1
4,C/C=C/C=C/c1nc2cccc(OC)c2n2cccc12,0.4
5,CCC/C=C/C=C/c1nc2ccccc2n2cccc12,0.6
6,CCC/C=C/C=C/c1nc2cc(OC)ccc2n2cccc12,0.8
7,CCC/C=C/C=C/c1nc2ccc(OC)cc2n2cccc12,1
8,CCC/C=C/C=C/c1nc2cccc(OC)c2n2cccc12,0.7

# Tested on: Trypanosoma brucei brucei
# Assay: Antimicrobial activity against Trypanosoma brucei brucei Antat 1.1 after 24 hrs by haemocytometric analysis
# Assay type: functional, organism-based
# Details: Antat 1.1, 24 h
row,Compound,IC50
1,C/C=C/C=C/c1nc2ccccc2n2cccc12,2.4 µM
2,C/C=C/C=C/c1nc2cc(OC)ccc2n2cccc12,2.1 µM
3,C/C=C/C=C/c1nc2ccc(OC)cc2n2cccc12,1.8 µM
4,C/C=C/C=C/c1nc2cccc(OC)c2n2cccc12,2.2 µM
5,CCC/C=C/C=C/c1nc2cc(OC)ccc2n2cccc12,1.9 µM

# Tested on: not listed separately
# Assay: Selectivity index, ratio of CC50 for human HepG2 cells to IC50 for Trypanosoma brucei brucei Antat 1.1
# Assay type: functional
# Details: not given
row,Compound,Ratio CC50/IC50
1,C/C=C/C=C/c1nc2ccccc2n2cccc12,4.3
2,C/C=C/C=C/c1nc2cc(OC)ccc2n2cccc12,2.8
3,C/C=C/C=C/c1nc2ccc(OC)cc2n2cccc12,4.8
4,C/C=C/C=C/c1nc2cccc(OC)c2n2cccc12,2.9
5,CCC/C=C/C=C/c1nc2cc(OC)ccc2n2cccc12,4.6

# Tested on: Plasmodium falciparum
# Assay: Antimicrobial activity against chloroquine-resistant and mefloquine-sensitive Plasmodium falciparum W2 infected in human erythrocytes after 48 hrs by SYBR Green I assay
# Assay type: functional, organism-based
# Details: W2, 48 h
row,Compound,IC50
1,C/C=C/C=C/c1nc2ccccc2n2cccc12,2.5 µM
2,C/C=C/C=C/c1nc2cc(OC)ccc2n2cccc12,3.4 µM
3,C/C=C/C=C/c1nc2ccc(OC)cc2n2cccc12,2.4 µM
4,C/C=C/C=C/c1nc2cccc(OC)c2n2cccc12,2.6 µM
5,CCC/C=C/C=C/c1nc2ccccc2n2cccc12,1.1 µM
6,CCC/C=C/C=C/c1nc2cc(OC)ccc2n2cccc12,0.8 µM
7,CCC/C=C/C=C/c1nc2ccc(OC)cc2n2cccc12,11 µM
8,CCC/C=C/C=C/c1nc2cccc(OC)c2n2cccc12,1.3 µM

# Tested on: Plasmodium falciparum
# Assay: Antimicrobial activity against chloroquine and mefloquine-sensitive Plasmodium falciparum 3D7 infected in human erythrocytes after 48 hrs by SYBR Green I assay
# Assay type: functional, organism-based
# Details: 3D7, 48 h
row,Compound,IC50
1,C/C=C/C=C/c1nc2ccccc2n2cccc12,2.4 µM
2,C/C=C/C=C/c1nc2cc(OC)ccc2n2cccc12,3.3 µM
3,C/C=C/C=C/c1nc2ccc(OC)cc2n2cccc12,1.5 µM
4,C/C=C/C=C/c1nc2cccc(OC)c2n2cccc12,3.2 µM
5,CCC/C=C/C=C/c1nc2ccccc2n2cccc12,2.5 µM
6,CCC/C=C/C=C/c1nc2cc(OC)ccc2n2cccc12,2.3 µM
7,CCC/C=C/C=C/c1nc2ccc(OC)cc2n2cccc12,3.3 µM
8,CCC/C=C/C=C/c1nc2cccc(OC)c2n2cccc12,1.6 µM

# Tested on: not listed separately
# Assay: Selectivity index, ratio of CC50 for human HepG2 cells to IC50 for chloroquine-resistant and mefloquine-sensitive Plasmodium falciparum W2
# Assay type: functional
# Details: not given
row,Compound,Ratio CC50/IC50
1,C/C=C/C=C/c1nc2ccccc2n2cccc12,4.1
2,C/C=C/C=C/c1nc2cc(OC)ccc2n2cccc12,1.7
3,C/C=C/C=C/c1nc2ccc(OC)cc2n2cccc12,3.6
4,C/C=C/C=C/c1nc2cccc(OC)c2n2cccc12,2.5
5,CCC/C=C/C=C/c1nc2ccccc2n2cccc12,8.5
6,CCC/C=C/C=C/c1nc2cc(OC)ccc2n2cccc12,11
7,CCC/C=C/C=C/c1nc2ccc(OC)cc2n2cccc12,1.8
8,CCC/C=C/C=C/c1nc2cccc(OC)c2n2cccc12,13.4

# Tested on: not listed separately
# Assay: Selectivity index, ratio of CC50 for human HepG2 cells to IC50 for chloroquine and mefloquine-sensitive Plasmodium falciparum 3D7
# Assay type: functional
# Details: not given
row,Compound,Ratio CC50/IC50
1,C/C=C/C=C/c1nc2ccccc2n2cccc12,4.3
2,C/C=C/C=C/c1nc2cc(OC)ccc2n2cccc12,1.8
3,C/C=C/C=C/c1nc2ccc(OC)cc2n2cccc12,5.8
4,C/C=C/C=C/c1nc2cccc(OC)c2n2cccc12,2
5,CCC/C=C/C=C/c1nc2ccccc2n2cccc12,3.7
6,CCC/C=C/C=C/c1nc2cc(OC)ccc2n2cccc12,3.8
7,CCC/C=C/C=C/c1nc2ccc(OC)cc2n2cccc12,6.1
8,CCC/C=C/C=C/c1nc2cccc(OC)c2n2cccc12,10.9
